Data on two compounds can be found in patent US11179391B2, “Compound with kinase inhibitory activity and preparation method and use thereof” (priority 2017, dated 2021).

In one data set the target is CDK6/cycD3 (Homo sapiens, UniProt Q00534). The data set is described as follows: Determination of CDK activity (Caliper mobility shift, FAM-P8 peptide): CDK6. The data set is classed as biochemical. To be noted: CDK6/cycD3; read-out: CDK6 enzymatic inhibitory activity (IC50). Put shortly: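 GST-CDK6(1-326)/cycD3 with FAM-P8 peptide and ATP, after 10 min room-temperature enzyme–compound preincubation; reaction at 28 °C, then EDTA stop. Substrate conversion read by Caliper mobility shift; inhibition from no-compound and no-enzyme controls, IC50 fitted over 10-point dilution in DMSO.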

A further data set concerns the target CDK1/CyclinB (Homo sapiens, UniProt P06493). The data set is described as follows: Determination of CDK activity (Caliper mobility shift, FAM-P8 peptide): CDK1. To be noted: CDK1/CyclinB; read-out: CDK1 enzymatic inhibitory activity (IC50). Type of data set: biochemical.
The subject of data set [1] is Human leukemia MV4-11 cells. The data set is described as follows: Pharmacodynamic study on mouse MV4-11 model (subcutaneous xenograft). Type of data set: in vivo, BALB/c nude mice. To be noted: for tumor inhibition effect compared with Abemaciclib (in words) / Tumor volume (day 0) / Tumor volume (day 21) / T/C relative tumor proliferation rate / TGI tumor growth inhibition rate: MV4-11 model, 50 mg/kg PO × 21 days; for Tumor volume (day 0): baseline at start of dosing; for Tumor volume (day 0) / Tumor volume (day 21) / T/C relative tumor proliferation rate / TGI tumor growth inhibition rate: mesylate; for T/C relative tumor proliferation rate / TGI tumor growth inhibition rate: day 21; for inhibitory effect on the tumor growth (in words): MV4-11 nude mouse model, 50 mg/kg, continuous PO administration for 21 days.

The nature of data set [2]: Pharmacokinetic study in rats. Type of data set: in vivo, Sprague-Dawley rats. To be noted: for F / Cmax / Tmax / clearance / half-life / AUC(0-t): male Sprague-Dawley rats; for F: iv 2 mg/kg and oral 5 mg/kg; for clearance in rat plasma (in words) / half-life in rat plasma (in words) / level of exposure at 24 h in rat plasma (in words): at the dose of 10 mg/kg; for Cmax / Tmax / clearance / half-life / AUC(0-t): rat, plasma, study dosed iv 2 mg/kg and oral 5 mg/kg, route of this parameter not given; for AUC(0-t): read-out: AUC0-24 h. Here is the method: Healthy adult Sprague-Dawley rats, male, 7-10 weeks old, weighing 240-270 g, provided by Beijing Vital River Laboratory Animal Technology Co., Ltd., with an animal certificate number of 1140070278736.
Test compounds of the invention: example 17, 33, 40, and 57.
Intravenous administration solvent system of compounds: 10% (V/V) NMP and 90% (20% (V/V)) SBE-β-CD in 16.667 mM PBS with a concentration of 1.0 mg/mL.
Oral administration solvent system of compounds: pure water system containing 0.1% hydroxyethyl cellulose and 0.5% Tween-80, with a concentration of 1 mg/mL.
Intravenous administration: 3 male Sprague-Dawley rats of each test compound were injected intravenously after fasting overnight, with a dose of 2 mg/kg, and the dosing volume was 2 mL/kg. […]
Before the administration, and after administration of 0.0833 (iv), 0.25, 0.5, 1, 2, 4, 8, 12, and 24 h, the jugular vein puncture (approximately 0.15 mL per time point) of each animal was performed by collecting blood from polypropylene tubes. All blood samples were transferred to pre-cooled EDTA-K2 test tubes or pre-cooled plastic microcentrifuge tubes containing 3 μL of 0.5 M EDTA-K2 as anticoagulant and placed on wet ice until centrifugation. Each collected blood was centrifuged at 4° C. for 15 minutes, and plasma was collected. All plasma would be stored in a freezer at about −80° C. until LCMS/MS detection.

Bounds are passed on as bounds.

Chain of CDK1/CyclinB (P06493 whole entry): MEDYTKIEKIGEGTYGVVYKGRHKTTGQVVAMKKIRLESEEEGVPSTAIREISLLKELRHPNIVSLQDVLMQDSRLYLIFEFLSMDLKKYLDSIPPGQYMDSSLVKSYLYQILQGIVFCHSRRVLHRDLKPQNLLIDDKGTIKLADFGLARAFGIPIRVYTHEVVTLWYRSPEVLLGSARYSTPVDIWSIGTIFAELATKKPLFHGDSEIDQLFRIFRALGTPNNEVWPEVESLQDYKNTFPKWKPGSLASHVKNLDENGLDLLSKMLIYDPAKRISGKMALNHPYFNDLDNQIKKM
Chain of CDK1/CyclinB (P14635 whole entry partner): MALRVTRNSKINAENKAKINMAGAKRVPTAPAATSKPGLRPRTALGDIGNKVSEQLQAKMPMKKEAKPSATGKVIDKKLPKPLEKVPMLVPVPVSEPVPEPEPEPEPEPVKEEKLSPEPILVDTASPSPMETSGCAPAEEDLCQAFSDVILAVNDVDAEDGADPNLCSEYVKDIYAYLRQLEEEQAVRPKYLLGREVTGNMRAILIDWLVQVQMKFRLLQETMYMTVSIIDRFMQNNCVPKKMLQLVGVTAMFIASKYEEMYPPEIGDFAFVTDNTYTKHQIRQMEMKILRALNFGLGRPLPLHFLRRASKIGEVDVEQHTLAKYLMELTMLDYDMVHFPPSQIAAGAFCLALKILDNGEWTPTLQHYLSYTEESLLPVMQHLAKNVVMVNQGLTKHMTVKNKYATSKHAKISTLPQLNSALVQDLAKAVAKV
Chain of CDK6/cycD3 (Q00534 whole entry): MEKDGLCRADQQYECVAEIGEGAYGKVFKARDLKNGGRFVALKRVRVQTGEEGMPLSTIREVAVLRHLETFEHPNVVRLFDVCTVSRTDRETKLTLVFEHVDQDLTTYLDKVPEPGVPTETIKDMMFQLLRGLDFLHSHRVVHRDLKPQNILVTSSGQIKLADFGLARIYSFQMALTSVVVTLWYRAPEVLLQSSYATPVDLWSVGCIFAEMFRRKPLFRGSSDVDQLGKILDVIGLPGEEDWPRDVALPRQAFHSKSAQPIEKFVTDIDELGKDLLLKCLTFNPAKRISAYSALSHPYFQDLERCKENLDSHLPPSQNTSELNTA
Chain of CDK6/cycD3 (P30281 whole entry partner): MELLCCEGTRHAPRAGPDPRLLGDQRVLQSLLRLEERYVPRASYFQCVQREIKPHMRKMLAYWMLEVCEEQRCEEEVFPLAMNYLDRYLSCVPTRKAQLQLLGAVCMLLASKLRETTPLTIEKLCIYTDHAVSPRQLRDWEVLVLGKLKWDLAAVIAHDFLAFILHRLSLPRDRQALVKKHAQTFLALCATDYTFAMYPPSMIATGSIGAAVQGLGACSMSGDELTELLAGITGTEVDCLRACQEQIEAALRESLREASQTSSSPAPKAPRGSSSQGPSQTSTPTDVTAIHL

In the case of `CCN1CCC(=Cc2ccc(Nc3ncc(F)c(-c4cc(F)c5nc(C)n(C(C)C)c5c4)n3)nc2)CC1` [Example 57, N-(5-((1-ethylpiperidin-4-ylidene)methyl)pyridin-2-yl)-5-fluoro-4-(4-fluoro-1-isopropyl-2-methyl-1H-benzo[d]imidazol-6-yl)pyrimidin-2-amine], on CDK6/cycD3, the concentration for half-maximal inhibition (IC50) (as a rule, the concentration needed to halve the response being measured) is less than 100 nM. At CDK1/CyclinB, the IC50 fell in the range of 100 to 500 nM. Moreover, in data set [1], the “tumor inhibition effect compared with Abemaciclib (in words)” value is “equivalent to that of positive control compound Abemaciclib”, the “Tumor volume (day 0)” value is 158 mm^3, the “Tumor volume (day 21)” value worked out at 491 mm^3 and the “T/C relative tumor proliferation rate” value turned out to be 41%. Also, in data set [1], the “TGI tumor growth inhibition rate” value is 59% and the “inhibitory effect on the tumor growth (in words)” value is on record as “good inhibitory effect”. Also, in data set [2], the F is listed as 57.6%, the “clearance in rat plasma (in words)” value is listed as “lower clearance”, the “half-life in rat plasma (in words)” value is “longer half-life” and the “level of exposure at 24 h in rat plasma (in words)” value is “high level of exposure”. Also, in data set [2], the Cmax (as a rule, the highest concentration seen after dosing) came to 205 ng/mL; the time to peak (Tmax) (as a rule, the time from dosing to the highest level) came to 8 h; the clearance was 14.8 mL/min/kg; the half-life (in general, how long it takes for the measured level to halve) was 11.7 h. The AUC(0-t) in data set [2] was determined as 3080 ng·h/mL.

For `CCN1CCC(C(C)c2ccc(Nc3ncc(F)c(-c4cc(F)c5nc(C)n(C(C)C)c5c4)n3)nc2)CC1` (single isomer, unassigned) [Example 17, (R or S)—N-(5-(1-(1-ethylpiperidin-4-yl)ethyl)pyridin-2-yl)-5-fluoro-4-(4-fluoro-1-isopropyl-2-methyl-1H-benzo[d]imidazol-6-yl) pyrimidin-2-amine], the IC50 at CDK6/cycD3 was less than 100 nM. Also, the IC50 on CDK1/CyclinB is 100 to 500 nM. For the same compound, in data set [1], the “tumor inhibition effect compared with Abemaciclib (in words)” value is reported as “equivalent to that of positive control compound Abemaciclib”, the “Tumor volume (day 0)” value came out at 158 mm^3, the “Tumor volume (day 21)” value came out at 463 mm^3 and the “T/C relative tumor proliferation rate” value is 38%. In addition, in data set [1], the “TGI tumor growth inhibition rate” value is recorded as 62% and the “inhibitory effect on the tumor growth (in words)” value is “good inhibitory effect”. In data set [2], the F worked out at 66.9%, the “clearance in rat plasma (in words)” value is on record as “lower clearance”, the “half-life in rat plasma (in words)” value is reported as “longer half-life” and the “level of exposure at 24 h in rat plasma (in words)” value was “high level of exposure”. Besides, in data set [2], the Cmax turned out to be 225 ng/mL, the Tmax was determined as 8 h, the clearance was found to be 14.1 mL/min/kg and the half-life is 9.38 h. The AUC(0-t) in data set [2] was determined as 3580 ng·h/mL.
